Laboratory results published in US20230338316A1, “ABBAPOLINS AS INHIBITORS AND DEGRADERS OF POLO-LIKE KINASES” (UNIVERSITY OF SOUTH CAROLINA, priority 2022, published 2023).

Experiments:
CCRF-CEM = experiment: Single dose cell viability assay, CCRF-CEM; assay type: cell-based; conditions: CCRF-CEM (Leukemia), single dose 10 μM
Protocol: (§1) Lead abbapolin compounds were tested in multiple cancer cell lines, including non-small cell lung cancer (NSCLC) cells, melanoma cells, colon cancer cells, central nervous system (CNS) cancer cells, prostate cancer cells, renal cancer cells, and breast cancer cells. Each of these cancer cells lines were sensitive to the lead abbapolin compounds in a cell viability assay, including 6184 (Table 3), 6277 (Table 4), 6279 (Table 5), 6355 (Table 6), 6359 (Table 7), 6369 (Table 8), and 6421 (Table 9).

[1] = system: PC3 prostate cancer xenografts; experiment: PC3 prostate cancer xenograft study; assay type: in vivo, athymic nude mice
Protocol: The efficacy of promising abbapolin compounds were tested in multiple cancer cell lines. […] To do so, athymic nude mice were injected in their flanks with 2.7×10^6 PC3 prostate cancer cells. After the tumors established at 13 days, 5-8 mice per group were treated with 6359 and 6369 daily for 5 days (M-F) for a total of 15 days. […] This is in agreement with the PLK1 degradation in the xenograft tumor.

UO-31 = experiment: Single dose cell viability assay, UO-31; assay type: cell-based; conditions: UO-31 (Renal), single dose 10 μM
Protocol: as §1

[2] = system: SH-SY5Y neuroblastoma cells overexpressing PLK1; experiment: Cell viability assay in neuroblastoma cells; assay type: cell-based
Protocol: Abbapolin compounds activity was evaluated in neuroblastoma cells. […] Further, abbapolins induced PLK1 degradation in SH-SY5Y cells (FIG. 14-16).

[3] = system: PC3 prostate cancer cells; experiment: MTT cell viability assay, PC3; assay type: cell-based; conditions: MTT, 72 hours
Protocol: PC3 prostate cancer cells were maintained in DMEM (Invitrogen™, Carlsebad, CA) supplemented with 10% FBS or Corning® Nu-serum™(BD™ Biosciences, Franklin Lakes, NJ) and 1% penicillin/streptomycin (Invitrogen™) in a humidified incubator and 5% CO2 at 37° C.
Exponentially growing cells were plated in 96-well dishes. Dose response curves were used to treat cells for 72 hours with inhibitors. Following the three-day treatment, cell viability was measured using the MTT (3-(4,5-dimethylthiazol-2-yl)-2,5-diphenyltetrazolium bromide) colorimetric assay. Cells were incubated for 3 hours with MTT allowing viable cells to metabolize the tetrazolium dye to a purple colored solution. Absorbance measurements (595 nm) were quantified using a DTX 880 plate reader and IC50 values were generated for FLIPs.

HL-60(TB) = experiment: Single dose cell viability assay, HL-60(TB); assay type: cell-based; conditions: HL-60(TB) (Leukemia), single dose 10 μM
Protocol: as §1

[4] = Pharmacokinetics after oral gavage; assay type: in vivo, swiss webster mice
Protocol: FIG. 3 graphically illustrates pharmacokinetics of SCCP ID No. 6359 in swiss webster mice at a dosage of 50 mg/kg.
These reasonable PK values of the lead abbapolin compounds tested in vivo are promising and indicate optimization will lead to further improvements.

HOP-92 = experiment: Single dose cell viability assay, HOP-92; assay type: cell-based; conditions: HOP-92 (NSCLC), single dose 10 μM
Protocol: as §1

PLK1 = PLK1 (Homo sapiens, UniProt P53350); experiment: PLK1 degradation in PC3 cells; assay type: cell-based; set-up: endogenous in cells; host or cells: PC3 prostate cancer cells; conditions: PC3 cell line, 24 hours
Chain of PLK1 (P53350 whole entry): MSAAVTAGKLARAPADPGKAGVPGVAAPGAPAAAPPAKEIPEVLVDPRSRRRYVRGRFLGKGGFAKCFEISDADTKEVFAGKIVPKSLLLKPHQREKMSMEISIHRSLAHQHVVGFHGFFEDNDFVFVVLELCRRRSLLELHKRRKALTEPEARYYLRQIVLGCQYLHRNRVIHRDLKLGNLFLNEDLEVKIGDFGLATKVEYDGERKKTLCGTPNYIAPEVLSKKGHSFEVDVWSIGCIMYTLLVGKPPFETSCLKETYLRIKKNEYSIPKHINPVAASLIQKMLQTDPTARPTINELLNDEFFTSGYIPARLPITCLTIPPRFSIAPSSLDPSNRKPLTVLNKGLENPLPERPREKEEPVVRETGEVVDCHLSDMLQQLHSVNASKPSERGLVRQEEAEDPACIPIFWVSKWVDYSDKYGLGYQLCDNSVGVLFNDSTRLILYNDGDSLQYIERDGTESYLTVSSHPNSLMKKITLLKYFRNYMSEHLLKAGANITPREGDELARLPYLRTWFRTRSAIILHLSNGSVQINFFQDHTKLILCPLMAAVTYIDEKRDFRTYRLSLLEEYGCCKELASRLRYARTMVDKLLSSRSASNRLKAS
Protocol: For example, PC3 cells were treated with varying dosages of abbapolin 6369, and percent of PLK1 degradation was measured at 24 hours (FIGS. 8A-8B). HeLa cells were treated with 25 μM abbapolin 6369, and time points shown in the assay were 24 hours, 48 hours, and 72 hours (FIGS. 9A-9B). PC3 cells were treated with varying dosages of abbapolin 6329, and percent of PLK1 degradation was measured at 24 hours (FIGS. […]). HeLa cells were treated with varying dosages of abbapolin 6329, and time points shown in the assay were 24 hours, 48 hours, and 72 hours (FIGS. 11A-11B).

NCI-H522 = experiment: Single dose cell viability assay, NCI-H522; assay type: cell-based; conditions: NCI-H522 (NSCLC), single dose 10 μM
Protocol: as §1

RPMI-8226 = experiment: Single dose cell viability assay, RPMI-8226; assay type: cell-based; conditions: RPMI-8226 (Leukemia), single dose 10 μM
Protocol: as §1

3-(4-octylbenzamido)phenyl phosphate [compound 6369]
Cells Remaining (%) (CCRF-CEM): 24.97% | growth of PC3 tumors ([1]; 6359 100 mg/kg oral gavage, 6369 40 mg/kg IP, daily 5 days (M-F), total 15 days): slow the growth of PC3 tumors | PLK1 loss in the xenograft tumor ([1]; isolated PC3 xenograft tumors): significantly more PLK1 loss compared to PBS and 6359 | Cells Remaining (%) (UO-31): 46.64% | IC50 [2]: 232 ± 55 µM | IC50 [3]: 2.3 ± 0.9 µM | Cells Remaining (%) (HL-60(TB)): 54.82% | blood levels ([4]; 50 mg/kg by oral gavage): measurable blood levels | oral absorption / PK ([4]; mouse, in vivo, po): low oral absorption | Cells Remaining (%) (HOP-92): 43.19% | PLK1 degradation (PLK1): degradation of PLK1 | Cells Remaining (%) (NCI-H522): 33.06% | Cells Remaining (%) (RPMI-8226): 39.13%
